Patent publication US6395896B2, “Pyridazine derivatives, manufacturing method and related composition” (Shiseido Co., Ltd., priority 1999, dated 2002)

Columns and labels:
[1] = Drug stabilization effect (photostabilizer, sunlight exposure); parameters: key to Sunlight exposure (80 MJ) Appearance: A: No change; B: No almost change; C: Yes change; conditions: photostabilizer 0.05, amounts wt %
Experimental: Next, the photo stabilization effect and changes in appearance in drug compositions were studied according to the following evaluation formulation.
Each test sample was prepared. Appearance changes of the samples exposed to sunlight (80 MJ) was observed (visual evaluation). Also, residual yield was measured by liquid chromatography.

[2] = Perfume stabilization effect (photostabilizer, sunlight exposure, judgement by perfumier); parameters: key to Sunlight exposure (80 MJ) Smell evaluation / Sunlight exposure (80 MJ) evaluation: A: No change; B: No almost change; C: Yes change
Experimental: Next, the photostabilization effect for each perfume was studied by the following evaluation formulation.
Each test sample was prepared. Change of smell of sample exposed to sunlight (80 MJ) was observed (judgement by perfumier).

[3] = Colorant stabilization effect (photostabilizer, sunlight exposure); parameters: key to Sunlight exposure (80 MJ) Appearance: A: No change; B: No almost change; C: Yes change; key to Sunlight exposure (80 MJ) ΔE: ΔE color difference (Lab) vs. color before sunlight exposure; conditions: photostabilizer 0.05 wt %
Experimental: First of all, the photostabilization effect and appearance change of a composition in each pigment were studied by the following evaluation formulation.
Each test sample was prepared. Observation of appearance change (visual evaluation) and measurement of color difference (ΔE) were carried out in samples exposed to sunlight exposure (around 80 MJ).
Color difference was measured by Lab coordinate system with spectrophotometer. Color difference was calculated on the basis of the color before sunlight exposure. Namely, from measured value (L1,a1,b1) before sunlight exposure, color difference (ΔE) was calculated by following formula.

[4] = Perfume stabilization effect (sequestering agent combination); parameters: key to Sunlight exposure (80 MJ) Smell evaluation: A: No change; B: No almost change; C: Yes change
Experimental: Next, for combinations with sequestering agent, photostabilization effect for each perfume was studied by the following evaluation formulation.
Each test sample was prepared. Smell change of samples exposed to sunlight (80 MJ) was observed (judgement by perfumier).

[5] = Pigment stabilization effect (sequestering agent combination); parameters: key to Sunlight exposure (80 MJ) Appearance: A: No change; B: No almost change; C: Yes change; key to Sunlight exposure (80 MJ) ΔE: color difference ΔE in Lab space vs. color before sunlight exposure; conditions: photostabilizer 0, amounts wt %
Experimental: First of all, the photostabilization effect and appearance changes of a composition for each pigment were studied by the following evaluation formulation.
Each test sample was prepared. Observation of appearance changes (visual evaluation) and measurement of color difference (ΔE) were carried out for samples exposed to sunlight (around 80 MJ).
Color difference was measured by Lab coordinate system with spectrophotometer. Color difference was calculated based on the color before sunlight exposure. Namely, from the measured value (L1,a1,b1) before sunlight exposure, color difference (ΔE) was calculated by following formula.

[6] = drug 2-o-α-α-glucopyranosyl-L-ascorbic acid 2.0
[7] = drug Dibutylhydroxytoluene 0.01
[8] = drug Dipotassium glycyrrhizinate 0.05
[9] = drug L-ascorbic acid 2-(dl-α-tocopheryl hydrogen phosphate) potassium salt 0.01
[10] = Base perfume Fruity 0.03 wt %, photostabilizer 0.1 wt %
[11] = Base perfume Muguet 0.03 wt %, photostabilizer 0.05 wt %
[12] = Base perfume Rose 0.03 wt %, photostabilizer 0.05 wt %
[13] = Base perfume Spicy 0.03 wt %, photostabilizer 0.2 wt %
[14] = Base perfume Woody 0.03 wt %, photostabilizer 0.1 wt %
[15] = Natural perfume Jasmine oil 0.03 wt %, photostabilizer 0.05 wt %
[16] = Natural perfume Lavender oil 0.03 wt %, photostabilizer 0.1 wt %
[17] = Natural perfume Neroli oil 0.03 wt %, photostabilizer 0.1 wt %
[18] = Natural perfume Rose oil 0.03 wt %, photostabilizer 0.05 wt %
[19] = Natural perfume Ylang ylang oil 0.03 wt %, photostabilizer 0.2 wt %
[20] = Synthetic perfume Citral 0.03 wt %, photostabilizer 0.1 wt %
[21] = Synthetic perfume Limonene 0.03 wt %, photostabilizer 0.05 wt %
[22] = Synthetic perfume Linalool 0.03 wt %, photostabilizer 0.05 wt %
[23] = Synthetic perfume Linalyl acetate 0.03 wt %, photostabilizer 0.1 wt %
[24] = Synthetic perfume Rose oxide 0.03 wt %, photostabilizer 0.2 wt %
[25] = Red No. 106 0.00001 wt % + Yellow No. 5 0.0001 wt %
[26] = Red No. 106 0.00001 wt % + Yellow No. 203 0.0001 wt %
[27] = Red No. 213 0.00001 wt % + Blue No. 1 0.00001 wt %
[28] = Red No. 227 0.0001 wt % + Yellow No. 5 0.0001 wt %
[29] = Red No. 227 0.0001 wt % + Yellow No. 203 0.0001 wt %
[30] = Red No. 401 0.0001 wt % + Blue No. 1 0.00001 wt %
[31] = Red No. 401 0.0001 wt % + Green No. 3 0.00001 wt %
[32] = Yellow No. 203 0.0001 wt % + Yellow No. 5 0.0001 wt %
[33] = colorant Green No. 3 0.0001, sequestering agent 0.03 alone
[34] = colorant Red No. 106 0.0001, sequestering agent 0.02 alone
[35] = colorant Red No. 401 0.001, sequestering agent 0.1 alone
[36] = colorant Yellow No. 5 0.001, sequestering agent 0.02 alone

## COc1ccc(C(=O)c2ccccc2)c(O)c1 [2-Hydroxy-4-methoxybenzophenone, reference compound]
[1]; [6]
  Sunlight exposure (80 MJ) Appearance: B
  Sunlight exposure (80 MJ) Residual yield [%]: 97.3%
[1]; [7]
  Sunlight exposure (80 MJ) Appearance: B
  Sunlight exposure (80 MJ) Residual yield [%]: 95.2%
[1]; [8]
  Sunlight exposure (80 MJ) Appearance: B
  Sunlight exposure (80 MJ) Residual yield [%]: 97.8%
[1]; [9]
  Sunlight exposure (80 MJ) Appearance: B
  Sunlight exposure (80 MJ) Residual yield [%]: 95.4%
[1]; drug Salicylic acid 0.1
  Sunlight exposure (80 MJ) Appearance: B
  Sunlight exposure (80 MJ) Residual yield [%]: 98.2%
[2]; [10]
  Sunlight exposure (80 MJ) Smell evaluation: B
[2]; [11]
  Sunlight exposure (80 MJ) Smell evaluation: B
[2]; [12]
  Sunlight exposure (80 MJ) Smell evaluation: B
[2]; [13]
  Sunlight exposure (80 MJ) Smell evaluation: B
[2]; [14]
  Sunlight exposure (80 MJ) Smell evaluation: B
[2]; [15]
  Sunlight exposure (80 MJ) Smell evaluation: B
[2]; [16]
  Sunlight exposure (80 MJ) Smell evaluation: B
[2]; [17]
  Sunlight exposure (80 MJ) Smell evaluation: B
[2]; [18]
  Sunlight exposure (80 MJ) Smell evaluation: B
[2]; [19]
  Sunlight exposure (80 MJ) Smell evaluation: B
[2]; [20]
  Sunlight exposure (80 MJ) Smell evaluation: B
[2]; [21]
  Sunlight exposure (80 MJ) Smell evaluation: B
[2]; [22]
  Sunlight exposure (80 MJ) Smell evaluation: B
[2]; [23]
  Sunlight exposure (80 MJ) Smell evaluation: B
[2]; [24]
  Sunlight exposure (80 MJ) Smell evaluation: B
[3]; Blue No. 1 0.0001 wt %
  Sunlight exposure (80 MJ) Appearance: B
  Sunlight exposure (80 MJ) ΔE: 1.76
[3]; Green No. 3 0.0001 wt %
  Sunlight exposure (80 MJ) Appearance: B
  Sunlight exposure (80 MJ) ΔE: 0.75
[3]; [25]
  Sunlight exposure (80 MJ) Appearance: B
  Sunlight exposure (80 MJ) ΔE: 1.18
[3]; [26]
  Sunlight exposure (80 MJ) Appearance: B
  Sunlight exposure (80 MJ) ΔE: 1.11
[3]; Red No. 106 0.0001 wt %
  Sunlight exposure (80 MJ) Appearance: B
  Sunlight exposure (80 MJ) ΔE: 1.01
[3]; [27]
  Sunlight exposure (80 MJ) Appearance: B
  Sunlight exposure (80 MJ) ΔE: 1.26
[3]; Red No. 213 0.0001 wt %
  Sunlight exposure (80 MJ) Appearance: B
  Sunlight exposure (80 MJ) ΔE: 1.34
[3]; [28]
  Sunlight exposure (80 MJ) Appearance: B
  Sunlight exposure (80 MJ) ΔE: 0.88
[3]; [29]
  Sunlight exposure (80 MJ) Appearance: B
  Sunlight exposure (80 MJ) ΔE: 1.05
[3]; Red No. 227 0.0001 wt %
  Sunlight exposure (80 MJ) Appearance: B
  Sunlight exposure (80 MJ) ΔE: 0.71
[3]; [30]
  Sunlight exposure (80 MJ) Appearance: B
  Sunlight exposure (80 MJ) ΔE: 0.82
[3]; [31]
  Sunlight exposure (80 MJ) Appearance: B
  Sunlight exposure (80 MJ) ΔE: 1.06
[3]; Red No. 401 0.001 wt %
  Sunlight exposure (80 MJ) Appearance: B
  Sunlight exposure (80 MJ) ΔE: 1.18
[3]; Yellow No. 5 0.001 wt %
  Sunlight exposure (80 MJ) Appearance: B
  Sunlight exposure (80 MJ) ΔE: 0.82
[3]; [32]
  Sunlight exposure (80 MJ) Appearance: A
  Sunlight exposure (80 MJ) ΔE: 0.52
[3]; Yellow No. 203 0.001 wt %
  Sunlight exposure (80 MJ) Appearance: B
  Sunlight exposure (80 MJ) ΔE: 0.88

## COc1cc(O)c(C(=O)c2ccccc2)cc1S(=O)(=O)[O-].[Na+] [2-Hydroxy-4-methoxybenzophenone-5-sodium sulfonate, reference compound]
[1]; [6]
  Sunlight exposure (80 MJ) Appearance: B
  Sunlight exposure (80 MJ) Residual yield [%]: 97.8%
[1]; [7]
  Sunlight exposure (80 MJ) Appearance: B
  Sunlight exposure (80 MJ) Residual yield [%]: 94.8%
[1]; [8]
  Sunlight exposure (80 MJ) Appearance: B
  Sunlight exposure (80 MJ) Residual yield [%]: 97.5%
[1]; [9]
  Sunlight exposure (80 MJ) Appearance: B
  Sunlight exposure (80 MJ) Residual yield [%]: 95.0%
[1]; drug Salicylic acid 0.1
  Sunlight exposure (80 MJ) Appearance: B
  Sunlight exposure (80 MJ) Residual yield [%]: 98.0%
[2]; [10]
  Sunlight exposure (80 MJ) Smell evaluation: B
[2]; [11]
  Sunlight exposure (80 MJ) Smell evaluation: B
[2]; [12]
  Sunlight exposure (80 MJ) Smell evaluation: B
[2]; [13]
  Sunlight exposure (80 MJ) Smell evaluation: B
[2]; [14]
  Sunlight exposure (80 MJ) Smell evaluation: B
[2]; [15]
  Sunlight exposure (80 MJ) Smell evaluation: B
[2]; [16]
  Sunlight exposure (80 MJ) Smell evaluation: B
[2]; [17]
  Sunlight exposure (80 MJ) Smell evaluation: B
[2]; [18]
  Sunlight exposure (80 MJ) Smell evaluation: B
[2]; [19]
  Sunlight exposure (80 MJ) Smell evaluation: B
[2]; [20]
  Sunlight exposure (80 MJ) Smell evaluation: B
[2]; [21]
  Sunlight exposure (80 MJ) Smell evaluation: B
[2]; [22]
  Sunlight exposure (80 MJ) Smell evaluation: B
[2]; [23]
  Sunlight exposure (80 MJ) Smell evaluation: B
[2]; [24]
  Sunlight exposure (80 MJ) Smell evaluation: B
[3]; Blue No. 1 0.0001 wt %
  Sunlight exposure (80 MJ) Appearance: B
  Sunlight exposure (80 MJ) ΔE: 1.67
[3]; Green No. 3 0.0001 wt %
  Sunlight exposure (80 MJ) Appearance: B
  Sunlight exposure (80 MJ) ΔE: 0.74
[3]; Red No. 106 0.0001 wt %
  Sunlight exposure (80 MJ) Appearance: B
  Sunlight exposure (80 MJ) ΔE: 0.98
[3]; Red No. 213 0.0001 wt %
  Sunlight exposure (80 MJ) Appearance: B
  Sunlight exposure (80 MJ) ΔE: 1.28
[3]; Red No. 227 0.0001 wt %
  Sunlight exposure (80 MJ) Appearance: B
  Sunlight exposure (80 MJ) ΔE: 0.80
[3]; Red No. 401 0.001 wt %
  Sunlight exposure (80 MJ) Appearance: B
  Sunlight exposure (80 MJ) ΔE: 1.39
[3]; Yellow No. 5 0.001 wt %
  Sunlight exposure (80 MJ) Appearance: B
  Sunlight exposure (80 MJ) ΔE: 0.78
[3]; Yellow No. 203 0.001 wt %
  Sunlight exposure (80 MJ) Appearance: B
  Sunlight exposure (80 MJ) ΔE: 0.76

## O=C([O-])CNCCN(CC(=O)[O-])CC(=O)[O-].[Na+].[Na+].[Na+] [Trisodium ethylenediamine triacetate]
[4]
  Sunlight exposure (80 MJ) Smell evaluation: C

## Sodium polyphosphate
[5]; [33]
  Sunlight exposure (80 MJ) Appearance: C
  Sunlight exposure (80 MJ) ΔE: 2.1
[5]; [34]
  Sunlight exposure (80 MJ) Appearance: C
  Sunlight exposure (80 MJ) ΔE: 2.92
[5]; [35]
  Sunlight exposure (80 MJ) Appearance: C
  Sunlight exposure (80 MJ) ΔE: 7.14
[5]; [36]
  Sunlight exposure (80 MJ) Appearance: C
  Sunlight exposure (80 MJ) ΔE: 1.75
